Results from article PMC10818931, “In Vitro Evaluation of Drug–Drug Interaction Potential of Epetraborole, a Novel Bacterial Leucyl-tRNA Synthetase Inhibitor” (Pharmaceuticals, 2024).

How the values were obtained:
Format in all cases: in vitro ADME
[1] = target: T1, MATE2K (Homo sapiens, UniProt Q86VL8); test: Transporter inhibition; conditions: read-out: as an Inhibitor, IC50
T1 construct: host or cells: MDCK

[2] = target: T2, MATE1 (Homo sapiens, UniProt Q96FL8); test: Substrate potential in transporter-transfected MDCK cells
T2 construct: host or cells: MDCK
T2 sequence (Q96FL8 1-570): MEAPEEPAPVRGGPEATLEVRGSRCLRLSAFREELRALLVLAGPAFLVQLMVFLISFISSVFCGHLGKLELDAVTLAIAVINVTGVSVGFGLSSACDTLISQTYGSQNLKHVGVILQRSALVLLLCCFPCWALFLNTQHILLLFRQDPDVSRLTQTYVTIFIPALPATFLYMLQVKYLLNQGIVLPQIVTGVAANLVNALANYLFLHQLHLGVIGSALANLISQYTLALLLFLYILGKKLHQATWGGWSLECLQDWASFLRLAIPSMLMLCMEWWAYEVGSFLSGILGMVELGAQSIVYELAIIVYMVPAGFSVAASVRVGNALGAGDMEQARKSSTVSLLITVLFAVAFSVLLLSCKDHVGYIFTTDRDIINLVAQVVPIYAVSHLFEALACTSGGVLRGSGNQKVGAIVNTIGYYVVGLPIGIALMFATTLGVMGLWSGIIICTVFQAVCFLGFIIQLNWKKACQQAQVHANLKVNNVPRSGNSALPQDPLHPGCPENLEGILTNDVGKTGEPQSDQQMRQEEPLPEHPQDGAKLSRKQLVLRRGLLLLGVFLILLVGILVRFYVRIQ
Protocol: (§1) The uptake of a probe substrate of each transporter was conducted in parallel with the test article in separate wells of the same batch of vector control and transporter-transfected cells. Cells were incubated at 37 °C with 5% CO2 with 500 μL of dosing solution for different periods of time.

[3] = target: T3, OAT3 (Homo sapiens, UniProt Q8TCC7); test: as above
T3 construct: host or cells: MDCK
T3 sequence (Q8TCC7 1-542): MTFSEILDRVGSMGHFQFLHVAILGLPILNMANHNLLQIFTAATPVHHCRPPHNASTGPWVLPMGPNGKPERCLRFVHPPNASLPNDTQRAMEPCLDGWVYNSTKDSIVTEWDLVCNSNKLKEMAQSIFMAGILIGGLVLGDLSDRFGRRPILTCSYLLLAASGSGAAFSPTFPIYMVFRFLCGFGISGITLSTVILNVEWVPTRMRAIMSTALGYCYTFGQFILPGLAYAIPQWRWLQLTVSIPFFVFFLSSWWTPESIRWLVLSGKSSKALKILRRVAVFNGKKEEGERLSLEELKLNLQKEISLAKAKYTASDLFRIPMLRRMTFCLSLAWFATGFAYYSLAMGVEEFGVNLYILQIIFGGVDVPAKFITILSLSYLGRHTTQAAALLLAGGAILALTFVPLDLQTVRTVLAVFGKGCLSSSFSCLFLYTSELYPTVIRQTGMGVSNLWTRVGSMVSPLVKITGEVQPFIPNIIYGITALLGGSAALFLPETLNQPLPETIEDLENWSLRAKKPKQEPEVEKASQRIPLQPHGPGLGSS
Protocol: as §1

[4] = target: T4, OATP1B3 (Homo sapiens, UniProt Q9NPD5); test: as above
T4 construct: host or cells: MDCK
T4 sequence (Q9NPD5 1-702): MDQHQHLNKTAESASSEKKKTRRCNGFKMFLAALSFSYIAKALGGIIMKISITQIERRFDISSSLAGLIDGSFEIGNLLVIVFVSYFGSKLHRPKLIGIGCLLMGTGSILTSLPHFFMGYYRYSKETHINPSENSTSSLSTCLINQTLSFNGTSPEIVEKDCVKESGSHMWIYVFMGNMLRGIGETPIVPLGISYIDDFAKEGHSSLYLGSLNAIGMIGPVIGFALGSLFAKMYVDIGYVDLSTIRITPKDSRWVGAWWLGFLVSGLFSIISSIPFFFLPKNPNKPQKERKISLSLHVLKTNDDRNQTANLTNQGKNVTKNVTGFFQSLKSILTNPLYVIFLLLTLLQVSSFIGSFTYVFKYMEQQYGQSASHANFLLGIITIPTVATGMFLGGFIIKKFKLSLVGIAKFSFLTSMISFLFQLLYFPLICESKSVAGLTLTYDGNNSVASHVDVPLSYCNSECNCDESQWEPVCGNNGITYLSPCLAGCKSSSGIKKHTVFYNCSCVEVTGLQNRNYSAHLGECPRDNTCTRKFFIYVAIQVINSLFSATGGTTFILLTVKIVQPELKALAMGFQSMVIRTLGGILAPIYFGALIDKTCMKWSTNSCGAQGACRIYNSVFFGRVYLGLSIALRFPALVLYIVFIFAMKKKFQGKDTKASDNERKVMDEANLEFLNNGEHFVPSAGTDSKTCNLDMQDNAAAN
Protocol: as §1

T1 sequence (Q86VL8 1-566 isoform Q86VL8-3): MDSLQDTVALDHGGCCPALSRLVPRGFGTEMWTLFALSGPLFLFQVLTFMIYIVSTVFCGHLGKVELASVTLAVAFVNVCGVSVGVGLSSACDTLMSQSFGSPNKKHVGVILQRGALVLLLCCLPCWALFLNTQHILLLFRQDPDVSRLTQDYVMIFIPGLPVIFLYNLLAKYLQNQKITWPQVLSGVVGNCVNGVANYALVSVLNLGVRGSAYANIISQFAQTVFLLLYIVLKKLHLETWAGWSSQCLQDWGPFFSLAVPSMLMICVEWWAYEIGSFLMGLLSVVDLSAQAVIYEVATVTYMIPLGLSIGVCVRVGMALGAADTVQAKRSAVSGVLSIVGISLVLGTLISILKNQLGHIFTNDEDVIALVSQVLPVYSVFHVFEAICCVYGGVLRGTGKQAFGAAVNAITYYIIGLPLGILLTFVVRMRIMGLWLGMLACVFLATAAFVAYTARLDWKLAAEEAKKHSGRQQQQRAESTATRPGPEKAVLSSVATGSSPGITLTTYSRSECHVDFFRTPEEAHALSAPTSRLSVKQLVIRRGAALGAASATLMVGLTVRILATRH

Row | Structure (SMILES) | IC50 [1] | Influx ratio [2] | as a Substrate [2] | Influx ratio [3] | as a Substrate [3] | Influx ratio [4] | as a Substrate [4]
1 | NC[C@H]1OB(O)c2c(OCCCO)cccc21 [EBO, Epetraborole] | > 100 µM | < 2 | No | < 2 | No | < 2 | No
2 | NC[C@H]1OB(O)c2c(OCCC(=O)O)cccc21 [M3] | > 250 µM | < 2 | No | < 2 | No | < 2 | No
